The values below come from PubChem BioAssay AID1259407 (Chemical Carcinogenesis Research Information System (CCRIS), 2018).

Active and inactive are the calls of the source. How the calls were made is not given here.

The subject of the data set is CCRIS mutagenicity, Ames/micronucleus/aberration tests. The experiment in a line: CCRIS mutagenicity studies.
Where [1] appears, read: Test System: AMES SALMONELLA TYPHIMURIUM, Strain/Indicator: TA100, Metabolic Activation: NONE, Method: STANDARD PLATE.
Where [2] appears, read: Test System: AMES SALMONELLA TYPHIMURIUM, Strain/Indicator: TA1537, Metabolic Activation: NONE, Method: STANDARD PLATE.
[3] abbreviates: Test System: AMES SALMONELLA TYPHIMURIUM, Strain/Indicator: TA1538, Metabolic Activation: NONE, Method: STANDARD PLATE.
The mark [4] stands for this setting: Test System: AMES SALMONELLA TYPHIMURIUM, Strain/Indicator: TA98, Metabolic Activation: NONE, Method: PREINCUBATION
[5] abbreviates: Test System: AMES SALMONELLA TYPHIMURIUM, Strain/Indicator: TA100, Metabolic Activation: NONE, Method: PREINCUBATION
Where [6] appears, read: Test System: AMES SALMONELLA TYPHIMURIUM, Strain/Indicator: TA1535, Metabolic Activation: NONE, Method: PREINCUBATION
The mark [7] stands for this setting: Test System: AMES SALMONELLA TYPHIMURIUM, Strain/Indicator: TA1537, Metabolic Activation: NONE, Method: PREINCUBATION

On to `C#CCOCCn1cc[n+](C)c1/C=N/O`, for which the mutagenic call is, setting by setting: (Test System: AMES SALMONELLA TYPHIMURIUM, Strain/Indicator: TA97, Metabolic Activation: NONE, Method: STANDARD PLATE) “inactive; negative”; (Test System: AMES SALMONELLA TYPHIMURIUM, Strain/Indicator: TA97, Metabolic Activation: S-9, Method: STANDARD PLATE) “inactive; negative”; under setting [1], “inactive; negative”; (Test System: AMES SALMONELLA TYPHIMURIUM, Strain/Indicator: TA100, Metabolic Activation: S-9, Method: STANDARD PLATE) “inactive; negative”; (Test System: AMES SALMONELLA TYPHIMURIUM, Strain/Indicator: TA104, Metabolic Activation: NONE, Method: STANDARD PLATE) “inactive; negative”; (Test System: AMES SALMONELLA TYPHIMURIUM, Strain/Indicator: TA104, Metabolic Activation: S-9, Method: STANDARD PLATE) “inactive; negative”. Moreover, the mutagenic call reads like this: under setting [2], “inactive; negative”; (Test System: AMES SALMONELLA TYPHIMURIUM, Strain/Indicator: TA1537, Metabolic Activation: S-9, Method: STANDARD PLATE) “inactive; negative”; under setting [3], “inactive; negative”; (Test System: AMES SALMONELLA TYPHIMURIUM, Strain/Indicator: TA1538, Metabolic Activation: S-9, Method: STANDARD PLATE) “inactive; negative”.
Consider `Fc1cnc2ccc3cccnc3c2c1`, for which the mutagenic call (Test System: AMES SALMONELLA TYPHIMURIUM, Strain/Indicator: TA100, Metabolic Activation: RAT, LIVER, S-9, PHENOBARBITAL AND 5,6-BENZOFLAVONE, Method: PREINCUBATION) is “active; positive”.
Turning to `CN(C)c1ccc([C@H]2C[C@@]3(C)[C@@H](CC[C@@]3(O)/C=C\CO)[C@@H]3CCC4=CC(=O)CCC4=C32)cc1`, the mutagenic call (End Point: IN VITRO CHROMOSOMAL ABERRATIONS, Test System: HUMAN PERIPHERAL LYMPHOCYTES, Metabolic Activation: NONE) is “inactive; negative”; the mutagenic call (End Point: IN VITRO CHROMOSOMAL ABERRATIONS, Test System: HUMAN PERIPHERAL LYMPHOCYTES, Metabolic Activation: RAT, LIVER, S-9, AROCLOR 1254) is “inactive; negative”; the mutagenic call (Test System: AMES SALMONELLA TYPHIMURIUM, Strain/Indicator: TA98, Metabolic Activation: NONE, Method: STANDARD PLATE) was “inactive; negative”; the mutagenic call (Test System: AMES SALMONELLA TYPHIMURIUM, Strain/Indicator: TA98, Metabolic Activation: RAT, LIVER, S-9, AROCLOR 1254, Method: STANDARD PLATE) was “inactive; negative”; the mutagenic call under setting [1] is “inactive; negative”; the mutagenic call (Test System: AMES SALMONELLA TYPHIMURIUM, Strain/Indicator: TA100, Metabolic Activation: RAT, LIVER, S-9, AROCLOR 1254, Method: STANDARD PLATE) is “inactive; negative”. Further, the mutagenic call is, setting by setting: (Test System: AMES SALMONELLA TYPHIMURIUM, Strain/Indicator: TA1535, Metabolic Activation: NONE, Method: STANDARD PLATE) “inactive; negative”; (Test System: AMES SALMONELLA TYPHIMURIUM, Strain/Indicator: TA1535, Metabolic Activation: RAT, LIVER, S-9, AROCLOR 1254, Method: STANDARD PLATE) “inactive; negative”; under setting [2], “inactive; negative”; (Test System: AMES SALMONELLA TYPHIMURIUM, Strain/Indicator: TA1537, Metabolic Activation: RAT, LIVER, S-9, AROCLOR 1254, Method: STANDARD PLATE) “inactive; negative”; under setting [3], “inactive; negative”; (Test System: AMES SALMONELLA TYPHIMURIUM, Strain/Indicator: TA1538, Metabolic Activation: RAT, LIVER, S-9, AROCLOR 1254, Method: STANDARD PLATE) “inactive; negative”.
In the case of `CCN(CC)c1ccc2c(C)cc(=O)oc2c1`, the mutagenic call reads like this: (Test System: AMES SALMONELLA TYPHIMURIUM, Strain/Indicator: TA98, Metabolic Activation: HAMSTER, LIVER, S-9, AROCLOR 1254, Method: PREINCUBATION) “inactive; negative”; under setting [4], “inactive; negative”; (Test System: AMES SALMONELLA TYPHIMURIUM, Strain/Indicator: TA98, Metabolic Activation: RAT, LIVER, S-9, AROCLOR 1254, Method: PREINCUBATION) “inactive; negative”; (Test System: AMES SALMONELLA TYPHIMURIUM, Strain/Indicator: TA100, Metabolic Activation: HAMSTER, LIVER, S-9, AROCLOR 1254, Method: PREINCUBATION) “inactive; negative”; under setting [5], “inactive; negative”; (Test System: AMES SALMONELLA TYPHIMURIUM, Strain/Indicator: TA100, Metabolic Activation: RAT, LIVER, S-9, AROCLOR 1254, Method: PREINCUBATION) “inactive; negative”. Also, the mutagenic call (Test System: AMES SALMONELLA TYPHIMURIUM, Strain/Indicator: TA1535, Metabolic Activation: HAMSTER, LIVER, S-9, AROCLOR 1254, Method: PREINCUBATION) is “inactive; negative”; the mutagenic call under setting [6] is “inactive; negative”; the mutagenic call (Test System: AMES SALMONELLA TYPHIMURIUM, Strain/Indicator: TA1535, Metabolic Activation: RAT, LIVER, S-9, AROCLOR 1254, Method: PREINCUBATION) is “inactive; negative”; the mutagenic call (Test System: AMES SALMONELLA TYPHIMURIUM, Strain/Indicator: TA1537, Metabolic Activation: HAMSTER, LIVER, S-9, AROCLOR 1254, Method: PREINCUBATION) was “inactive; negative”; the mutagenic call under setting [7] was “inactive; negative”; the mutagenic call (Test System: AMES SALMONELLA TYPHIMURIUM, Strain/Indicator: TA1537, Metabolic Activation: RAT, LIVER, S-9, AROCLOR 1254, Method: PREINCUBATION) is “inactive; negative”.
As to `COc1ccc2c(c1OC)c(=O)n(C)c1c3cc4c(cc3ccc21)OCO4`, the mutagenic call (Test System: AMES SALMONELLA TYPHIMURIUM, Strain/Indicator: TA100, Metabolic Activation: RAT, LIVER, S-9, PHENOBARBITAL AND BETA-NAPHTHOFLAVONE, Method: PREINCUBATION) was “active; positive”.
As to `O=C(O)c1ccccc1-c1c2ccc(=O)cc-2oc2cc(O)ccc12`, the mutagenic call is, setting by setting: (End Point: IN VITRO CHROMOSOMAL ABERRATIONS, Test System: CHO-LB CELLS, Metabolic Activation: NONE) “inactive; negative”; (End Point: IN VITRO CHROMOSOMAL ABERRATIONS, Test System: CHO-LB CELLS, Metabolic Activation: RAT, LIVER, S-9, AROCLOR 1254) “inactive; negative”; (Test System: AMES SALMONELLA TYPHIMURIUM, Strain/Indicator: TA98, Metabolic Activation: HAMSTER, LIVER, S-9, AROCLOR 1254 (10%), Method: PREINCUBATION) “inactive; negative”; under setting [4], “inactive; negative”; (Test System: AMES SALMONELLA TYPHIMURIUM, Strain/Indicator: TA98, Metabolic Activation: RAT, LIVER, S-9, AROCLOR 1254 (10%), Method: PREINCUBATION) “inactive; negative”; (Test System: AMES SALMONELLA TYPHIMURIUM, Strain/Indicator: TA100, Metabolic Activation: HAMSTER, LIVER, S-9, AROCLOR 1254 (10%), Method: PREINCUBATION) “inactive; negative”. Also, the mutagenic call runs as follows: under setting [5], “inactive; negative”; (Test System: AMES SALMONELLA TYPHIMURIUM, Strain/Indicator: TA100, Metabolic Activation: RAT, LIVER, S-9, AROCLOR 1254 (10%), Method: PREINCUBATION) “inactive; negative”; (Test System: AMES SALMONELLA TYPHIMURIUM, Strain/Indicator: TA1535, Metabolic Activation: HAMSTER, LIVER, S-9, AROCLOR 1254 (10%), Method: PREINCUBATION) “inactive; negative”; under setting [6], “inactive; negative”; (Test System: AMES SALMONELLA TYPHIMURIUM, Strain/Indicator: TA1535, Metabolic Activation: RAT, LIVER, S-9, AROCLOR 1254 (10%), Method: PREINCUBATION) “inactive; negative”; (Test System: AMES SALMONELLA TYPHIMURIUM, Strain/Indicator: TA1537, Metabolic Activation: HAMSTER, LIVER, S-9, AROCLOR 1254 (10%), Method: PREINCUBATION) “inactive; negative”. For the same compound, the mutagenic call under setting [7] is “inactive; negative” and the mutagenic call (Test System: AMES SALMONELLA TYPHIMURIUM, Strain/Indicator: TA1537, Metabolic Activation: RAT, LIVER, S-9, AROCLOR 1254 (10%), Method: PREINCUBATION) is “inactive; negative”.
As to `CCOC(=O)C(=NNc1ccc(-c2ccc(NN=C(C(=O)OCC)C(=O)OCC)cc2)cc1)C(=O)OCC`, the mutagenic call (Test System: AMES SALMONELLA TYPHIMURIUM, Strain/Indicator: TA98, Metabolic Activation: HAMSTER, LIVER, S-9, Method: PREINCUBATION (PRIVAL METHOD)) was “inactive; negative”.
